{
  "source": "patent US20030096733A1",
  "about": "“Novel drug targets for arthritis” (Omnio AB, priority 2001, published 2003)",
  "molecules": {"B1": {"name": "Human plasminogen: human plasminogen injected intravenously into plasminogen deficient mice to restore the serum plasminogen level (protein)", "chain": "MEHKEVVLLLLLFLKSGQGEPLDDYVNTQGASLFSVTKKQLGAGSIEECAAKCEEDEEFTCRAFQYHSKEQQCVIMAENRKSSIIIRMRDVVLFEKKVYLSECKTGNGKNYRGTMSKTKNGITCQKWSSTSPHRPRFSPATHPSEGLEENYCRNPDNDPQGPWCYTTDPEKRYDYCDILECEEECMHCSGENYDGKISKTMSGLECQAWDSQSPHAHGYIPSKFPNKNLKKNYCRNPDRELRPWCFTTDPNKRWELCDIPRCTTPPPSSGPTYQCLKGTGENYRGNVAVTVSGHTCQHWSAQTPHTHNRTPENFPCKNLDENYCRNPDGKRAPWCHTTNSQVRWEYCKIPSCDSSPVSTEQLAPTAPPELTPVVQDCYHGDGQSYRGTSSTTTTGKKCQSWSSMTPHRHQKTPENYPNAGLTMNYCRNPDADKGPWCFTTDPSVRWEYCNLKKCSGTEASVVAPPPVVLLPDVETPSEEDCMFGNGKGYRGKRATTVTGTPCQDWAAQEPHRHSIFTPETNPRAGLEKNYCRNPDGDVGGPWCYTTNPRKLYDYCDVPQCAAPSFDCGKPQVEPKKCPGRVVGGCVAHPHSWPWQVSLRTRFGMHFCGGTLISPEWVLTAAHCLEKSPRPSSYKVILGAHQEVNLEPHVQEIEVSRLFLEPTRKDIALLKLSSPAVITDKVIPACLPSPNYVVADRTECFITGWGETQGTFGAGLLKEAQLPVIENKVCNRYEFLNGRVQSTELCAGHLAGGTDSCQGDSGGPLVCFEKDKYILQGVTSWGLGCARPNKPGVYVRVSRFVTWIEGVMRNN"}, "B2": {"name": "α2AP: single-chain glycoprotein, physiological inhibitor of plasmin (protein, UniProt P08697 40-491, looked up)", "Alpha-2-antiplasmin": "NQEQVSPLTLLKLGNQEPGGQTALKSPPGVCSRDPTPEQTHRLARAMMAFTADLFSLVAQTSTCPNLILSPLSVALALSHLALGAQNHTLQRLQQVLHAGSGPCLPHLLSRLCQDLGPGAFRLAARMYLQKGFPIKEDFLEQSEQLFGAKPVSLTGKQEDDLANINQWVKEATEGKIQEFLSGLPEDTVLLLLNAIHFQGFWRNKFDPSLTQRDSFHLDEQFTVPVEMMQARTYPLRWFLLEQPEIQVAHFPFKNNMSFVVLVPTHFEWNVSQVLANLSWDTLHPPLVWERPTKVRLPKLYLKHQMDLVATLSQLGLQELFQAPDLRGISEQSLVVSGVQHQSTLELSEVGVEAAAATSIAMSRMSLSSFSVNRPFLFFIFEDTTGLPLFVGSVRNPNPSAPRELKEQQDSPGNKDFLQSLKGFPRGDKLFGPDLKLVPPMEEDYPQFGSPK"}},
  "key": {"plasmin [1]": {"target": "T1, plasmin (Homo sapiens, UniProt P00747)", "T1 construct": "After the cleavage, plasmin is an active two-chain disulfide linked molecule", "details": "chromogenic substrate; cited from earlier work"}, "human uPA": {"target": "human uPA (Homo sapiens, UniProt P00749)", "details": "read-out: Km for human uPA; chromogenic substrate; cited from earlier work"}, "CIA-sensitive mice [2]": {"tested_on": "CIA-sensitive mice", "experiment": "Aprotinin treatment of CIA-sensitive mice, arthritis induced by monoclonal antibodies C1 and M2139", "type": "in vivo", "details": "0.5 mL aprotinin w/o emulsion i.p. every 72 hours; monoclonal antibody induction", "source_text": "(§1) To test potential drug candidates, arthritis is induced in CIA-sensitive mice either by immunization with collagen type II (CIA) or, alternatively, by use of monoclonal antibodies.\nUsing monoclonal antibodies to induce CIA has an advantage in that it allows for better control of the induction.\n(§2) The present example describes treatment of CIA-sensitive mice with aprotinin (Trasylol; Bayer). Trasylol is an inhibitor of plasmin and thereby, according to the invention, a candidate drug for treating arthritis.\n(§3) Since aprotinin has a rather short half life in mice, a sustained release system for Trasylol is used. An exemplary system based on water/oil (w/o) emulsions where aprotinin is incorporated is described in detail by Bjerregaard et al. (Journal of Controlled release 2001; 71:87-98).\nThe mice are injected intraperitoneally with 0.5 mL aprotinin emulsion, containing 30% w/w disperse phase with 87 mg aprotinin per ml aqueous phase (corresponding to a dose of approximately 85,000 KIU (“kallikrein-inactivator units”) aprotinin, using a Hamilton syringe 21 G needle. (It is also possible to carry out controlled administration of aprotinin via an osmotic pump.) The injection is repeated every 72 hours.\nCIA induction using monoclonal antibodies. […] The development of arthritis is evaluated with the clinical grading system described in Example 1. […]"}, "CIA-sensitive mice [3]": {"tested_on": "CIA-sensitive mice", "experiment": "Aprotinin treatment of CIA-sensitive mice, arthritis induced by rat collagen II", "type": "in vivo", "details": "0.5 ml aprotinin w/o emulsion i.p. every 72 hr; collagen II induction", "source_text": "as §1, §2, §3\nCIA induction using Collagen-II. Collagen-induced arthritis (CIA) is induced in mice with Rat collagen II, which is prepared from the Swarm chondrosarcoma after pepsin digestion, as previously described (Andersson and Holmdahl, Eur J Immunol 1990;20:1061-1066). Collagen II is dissolved at a concentration of 2 mg/ml in 0.1 M acetic acid and stored at 4° C. Arthritis is induced by intrademal injection at the basis of the tail with […] of […] rat collagen II emulsified with an equal volume of complete Freund's adjuvant (CFA, with Mycobacterium butyricum; Difco, Detroit, Mich.). […]"}, "[4]": {"details": "cited from earlier work"}, "[5]": {"tested_on": "plasminogen deficient mice", "experiment": "Restoration of plasminogen in plasminogen deficient mice, arthritis induced by collagen II monoclonal antibody cocktail", "type": "in vivo", "description": "Induction of arthritis using monoclonal antibodies directed against collagen type II. A battery of monoclonal antibodies against collagen type II were produced by standard procedures. Induction of arthritis was performed by intravenous injection of a cocktail of two antibodies denoted C1 and M2139 at day 0. Five days later (day 5), lipopolysacchride was injected intraperitoneally to enhance the immune response. The development of arthritis was evaluated with a previously described clinical grading system.\nClinical grading evaluation of arthritis. The development of arthritis was tracked using a scoring system which defines one inflamed toe or knuckle as 1 point and one inflamed wrist or ankle as […], resulting in a score of 0-15 points for each paw and 0-60 points per mouse. Deformed or swollen without redness is not included in this system.\nInduction of arthritis in plasminogen deficient mice by restoration of plasminogen. 100 μl of human plasminogen, at a concentration of 10 mg/ml, was injected intravenously into the plasminogen deficient mice every 24 hours in order to restore the serum plasminogen level. 12 hours after the first injection of plasminogen, three groups of mice, plg-wildtype, plg-heterozygous, plg-deficient were again injected with plasminogen before arthritis was induced using the Collagen II monoclonal antibody cocktails as described above. The development of arthritis was followed by the clinical scoring system."}, "plasmin [6]": {"target": "T1, plasmin", "details": "cited from earlier work"}},
  "note": "Where a name gives a salt, the structure may show the parent alone. Residues, ends and D or L forms follow the SMILES beside them.",
  "data": [
    {"molecule": "CC(C)C[C@H](NC(=O)[C@H](N)C(C)C)C(=O)N[C@@H](CCCCN)C(=O)Nc1ccc([N+](=O)[O-])cc1", "note": "[S-2251, H-D-Valyl-L-leucyl-L-lysine-p-nitroaniline dihydrochloride] (HELM PEPTIDE1{[dV].L.K.[O=[N+]([O-])c1ccc(N[*:1])cc1]}$$$$V2.0)", "values": [
      {"measurement": "Km", "setting": "plasmin [1]", "value": 300, "unit": "µM"}
    ]},
    {"molecule": "L-pyroglutamyl-glycyl-L-arginine-p-nitroaniline hydrochloride [S-2444]", "values": [
      {"measurement": "Km", "setting": "human uPA", "value": 90, "unit": "µM"}
    ]},
    {"molecule": "aprotinin", "values": [
      {"measurement": "incidence of the CIA vs control mice", "setting": "CIA-sensitive mice [2]", "value": "lower"},
      {"measurement": "severity of the CIA vs control mice", "setting": "CIA-sensitive mice [2]", "value": "lower"},
      {"measurement": "incidence of the CIA vs control mice", "setting": "CIA-sensitive mice [3]", "value": "lower"},
      {"measurement": "severity of the CIA vs control mice", "setting": "CIA-sensitive mice [3]", "value": "lower"},
      {"measurement": "half life in mice", "setting": "[4]", "value": "rather short"}
    ]},
    {"molecule": "B1", "values": [
      {"measurement": "plasminogen deficient mice that developed joint inflammation", "setting": "[5]; five days after the cocktail injection, human plasminogen injected 12 hours before challenge", "value": "3 out of 4"},
      {"measurement": "Arthritic score", "setting": "[5]; plg −/− mice, human plasminogen i.v. every 24 hours, anti-collagen II monoclonal antibody cocktail, clinical score 0-60 points per mouse", "value": "6.7 ± 2.9"},
      {"measurement": "Incidence of RA", "setting": "[5]; plg −/− mice, human plasminogen i.v. every 24 hours, anti-collagen II monoclonal antibody cocktail, mice affected/total", "value": "3/4"}
    ]},
    {"molecule": "B2", "values": [
      {"measurement": "second-order rate constant of inhibition of plasmin", "setting": "plasmin [6]", "value": "above 10^7 M^−1s^−1"}
    ]}
  ]
}
